Each block holds one molecule with its values, some of them ahead of it.
Tests used:
Type in all cases: biochemical
EGFR (h) = EGFR (h) (Homo sapiens, UniProt P00533); assay: Kinase profiling, glass-fiber filter technology: EGFR; conditions: test concentration of 10^−6 M; read-out: EGFR inhibition score
Experimental: (§1) The in vitro inhibition of a panel of kinases was assessed using the glass-fiber filter technology as described by Davies, S. P. et al., Biochem J. (2000), 351; p. 95-105.
(§2) In the glass-fiber filter technology the activity of the kinase of interest is measured using an appropriate substrate that is incubated with the aforementioned kinase protein in the presence of (^33P) radiolabeled ATP. (^33P) Phosporylation of the substrate is subsequently measured as radioactivity bound on a glassfiber-filter.
(§3) All kinases are pre-diluted to a 10× working concentration prior to addition into the assay. The composition of the dilution buffer for each kinase is detailed below.
(§4) All substrates are dissolved and diluted to working stocks in de-ionised water.
(§5) In a final reaction volume of 25 μl, EGFR (h) (5-10 mU) is incubated with 8 mM MOPS pH 7.0, 0.2 mM EDTA, 10 mM MnCl2, 0.1 mg/ml poly(Glu, Tyr) 4:1, 10 mM MgAcetate and [γ-^33P-ATP] (specific activity approx. 500 cpm/pmol, concentration as required). The reaction is initiated by the addition of the MgATP mix. After incubation for 40 minutes at room temperature, the reaction is stopped by the addition of 5 μl of a 3% phosphoric acid solution. 10 μl of the reaction is then spotted onto a Filtermat A and washed three times for 5 minutes in 75 mM phosphoric acid and once in methanol prior to drying and scintillation counting.

Lck (h) = Lck (h) (Homo sapiens, UniProt P06239); assay: Kinase profiling, glass-fiber filter technology: Lck; conditions: test concentration of 10^−6 M; read-out: Lck inhibition score
Experimental: as §1, §2, §3, §4
In a final reaction volume of 25 μl, Lck (h) (5-10 mU) is incubated with 50 mM Tris pH 7.5, 0.1 mM EGTA, 0.1 mM Na3VO4, 250 μM KVEKIGEGTYGVVYK (Cdc2 peptide), 10 mM MgAcetate and [γ-^33P-ATP] (specific activity approx. 500 cpm/pmol, concentration as required). The reaction is initiated by the addition of the MgATP mix. After incubation for 40 minutes at room temperature, the reaction is stopped by the addition of 5 μl of a 3% phosphoric acid solution.
10 μl of the reaction is then spotted onto a P30 filtermat and washed three times for 5 minutes in 75 mM phosphoric acid and once in methanol prior to drying and scintillation counting.

Ret human = Ret human (Homo sapiens, UniProt P07949); assay: Kinase profiling, glass-fiber filter technology: Ret; conditions: test concentration of 10^−6 M; read-out: Ret inhibition score
Experimental: as §1, §2, §3, §4
as §5, with “Ret human” for “EGFR (h)”, “250 μM KKKSPGEYVNIEFG,” for “10 mM MnCl2, 0.1 mg/ml poly(Glu, Tyr) 4:1,”, “P30 filtermat” for “Filtermat A”

Flt1 human = Flt1 human (Homo sapiens, UniProt P17948); assay: Kinase profiling, glass-fiber filter technology: Flt1; conditions: test concentration of 10^−6 M; read-out: Flt1 inhibition score
Experimental: as §1, §2, §3, §4
as §5, with “Flt1 human” for “EGFR (h)”, “250 μM KKKSPGEYVNIEFG,” for “10 mM MnCl2, 0.1 mg/ml poly(Glu, Tyr) 4:1,”, “P30 filtermat” for “Filtermat A”

Blk (m) = Blk (m) (Mus musculus, UniProt P16277); assay: Kinase profiling, glass-fiber filter technology: Blk; conditions: test concentration of 10^−6 M; read-out: Blkl inhibition score
Experimental: as §1, §2, §3, §4
(§6) In a final reaction volume of 25 μl, Blk (m) (5-10 mU) is incubated with 50 mM Tris pH 7.5, 0.1 mM EGTA, 0.1 mM Na3VO4, 0.1% β-mercaptoethanol, 0.1 mg/ml poly(Glu, Tyr) 4:1, 10 mM MgAcetate and [γ-33P-ATP] (specific activity approx. 500 cpm/pmol, concentration as required). The reaction is initiated by the addition of the MgATP mix. After incubation for 40 minutes at room temperature, the reaction is stopped by the addition of 5 μl of a 3% phosphoric acid solution. 10 μl of the reaction is then spotted onto a Filtermat A and washed three times for 5 minutes in 75 mM phosphoric acid and once in methanol prior to drying and scintillation counting.

ErbB4 (h) = ErbB4 (h) (Homo sapiens, UniProt Q15303); assay: Kinase profiling, glass-fiber filter technology: ErbB4; conditions: test concentration of 10^−6 M; read-out: ErbB4 inhibition score
Experimental: as §1, §2, §3, §4
as §5, with “ErbB4” for “EGFR”, “[γ-33P-ATP]” for “[γ-^33P-ATP]”

Lyn (h) = Lyn (h) (Homo sapiens, UniProt P07948); assay: Kinase profiling, glass-fiber filter technology: Lyn; conditions: test concentration of 10^−6 M; read-out: Lyn inhibition score
Experimental: as §1, §2, §3, §4
as §6, with “Lyn (h)” for “Blk (m)”, “[γ-^33P-ATP]” for “[γ-33P-ATP]”

Sequence of Blk (m) (P16277 whole entry): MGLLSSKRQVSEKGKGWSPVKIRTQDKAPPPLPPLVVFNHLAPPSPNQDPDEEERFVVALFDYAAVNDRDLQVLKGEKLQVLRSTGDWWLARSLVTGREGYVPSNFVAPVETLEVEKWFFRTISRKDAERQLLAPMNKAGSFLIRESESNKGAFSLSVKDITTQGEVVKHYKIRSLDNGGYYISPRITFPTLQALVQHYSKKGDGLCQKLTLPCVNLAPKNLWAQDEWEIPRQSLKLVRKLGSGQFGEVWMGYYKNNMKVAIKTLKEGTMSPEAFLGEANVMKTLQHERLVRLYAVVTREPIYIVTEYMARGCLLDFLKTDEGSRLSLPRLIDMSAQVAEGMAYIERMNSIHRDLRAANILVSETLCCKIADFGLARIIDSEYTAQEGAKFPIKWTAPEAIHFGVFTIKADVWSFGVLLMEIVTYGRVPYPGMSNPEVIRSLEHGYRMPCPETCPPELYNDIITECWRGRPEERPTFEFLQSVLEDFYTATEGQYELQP
Sequence of Flt1 human (P17948 27-1338): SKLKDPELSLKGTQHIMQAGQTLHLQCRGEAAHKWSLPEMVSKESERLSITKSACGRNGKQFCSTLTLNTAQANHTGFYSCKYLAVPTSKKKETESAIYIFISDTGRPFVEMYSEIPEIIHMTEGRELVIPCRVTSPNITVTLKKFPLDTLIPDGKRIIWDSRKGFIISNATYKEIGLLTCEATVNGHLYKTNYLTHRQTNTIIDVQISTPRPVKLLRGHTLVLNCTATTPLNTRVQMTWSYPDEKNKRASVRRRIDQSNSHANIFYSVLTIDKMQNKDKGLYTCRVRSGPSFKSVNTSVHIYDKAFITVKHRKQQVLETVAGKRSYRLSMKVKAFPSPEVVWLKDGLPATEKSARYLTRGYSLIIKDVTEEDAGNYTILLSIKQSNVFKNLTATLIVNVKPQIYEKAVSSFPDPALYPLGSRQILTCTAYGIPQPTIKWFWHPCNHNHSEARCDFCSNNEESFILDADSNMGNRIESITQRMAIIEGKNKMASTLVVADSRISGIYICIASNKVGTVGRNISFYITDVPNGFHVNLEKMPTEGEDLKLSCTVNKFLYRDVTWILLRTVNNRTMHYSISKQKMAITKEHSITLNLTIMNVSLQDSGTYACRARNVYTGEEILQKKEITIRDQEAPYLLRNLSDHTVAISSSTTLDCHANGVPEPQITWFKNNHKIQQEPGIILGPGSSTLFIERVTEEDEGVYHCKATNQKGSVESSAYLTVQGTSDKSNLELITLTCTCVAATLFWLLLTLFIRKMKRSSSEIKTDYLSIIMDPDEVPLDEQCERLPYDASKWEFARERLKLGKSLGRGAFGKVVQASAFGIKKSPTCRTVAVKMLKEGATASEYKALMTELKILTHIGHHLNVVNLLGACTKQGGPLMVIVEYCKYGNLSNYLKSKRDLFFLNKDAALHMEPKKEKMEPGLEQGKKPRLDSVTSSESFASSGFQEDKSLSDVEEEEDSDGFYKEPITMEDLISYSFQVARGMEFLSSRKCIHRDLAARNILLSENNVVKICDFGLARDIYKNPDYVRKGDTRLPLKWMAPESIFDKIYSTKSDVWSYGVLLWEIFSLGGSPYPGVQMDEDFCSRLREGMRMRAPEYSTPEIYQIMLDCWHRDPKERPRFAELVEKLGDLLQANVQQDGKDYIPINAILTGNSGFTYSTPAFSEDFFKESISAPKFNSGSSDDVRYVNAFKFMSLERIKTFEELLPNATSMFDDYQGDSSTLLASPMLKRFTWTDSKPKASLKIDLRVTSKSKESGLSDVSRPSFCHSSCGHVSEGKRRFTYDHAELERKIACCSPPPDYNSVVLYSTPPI
Sequence of Ret human (P07949 29-1114): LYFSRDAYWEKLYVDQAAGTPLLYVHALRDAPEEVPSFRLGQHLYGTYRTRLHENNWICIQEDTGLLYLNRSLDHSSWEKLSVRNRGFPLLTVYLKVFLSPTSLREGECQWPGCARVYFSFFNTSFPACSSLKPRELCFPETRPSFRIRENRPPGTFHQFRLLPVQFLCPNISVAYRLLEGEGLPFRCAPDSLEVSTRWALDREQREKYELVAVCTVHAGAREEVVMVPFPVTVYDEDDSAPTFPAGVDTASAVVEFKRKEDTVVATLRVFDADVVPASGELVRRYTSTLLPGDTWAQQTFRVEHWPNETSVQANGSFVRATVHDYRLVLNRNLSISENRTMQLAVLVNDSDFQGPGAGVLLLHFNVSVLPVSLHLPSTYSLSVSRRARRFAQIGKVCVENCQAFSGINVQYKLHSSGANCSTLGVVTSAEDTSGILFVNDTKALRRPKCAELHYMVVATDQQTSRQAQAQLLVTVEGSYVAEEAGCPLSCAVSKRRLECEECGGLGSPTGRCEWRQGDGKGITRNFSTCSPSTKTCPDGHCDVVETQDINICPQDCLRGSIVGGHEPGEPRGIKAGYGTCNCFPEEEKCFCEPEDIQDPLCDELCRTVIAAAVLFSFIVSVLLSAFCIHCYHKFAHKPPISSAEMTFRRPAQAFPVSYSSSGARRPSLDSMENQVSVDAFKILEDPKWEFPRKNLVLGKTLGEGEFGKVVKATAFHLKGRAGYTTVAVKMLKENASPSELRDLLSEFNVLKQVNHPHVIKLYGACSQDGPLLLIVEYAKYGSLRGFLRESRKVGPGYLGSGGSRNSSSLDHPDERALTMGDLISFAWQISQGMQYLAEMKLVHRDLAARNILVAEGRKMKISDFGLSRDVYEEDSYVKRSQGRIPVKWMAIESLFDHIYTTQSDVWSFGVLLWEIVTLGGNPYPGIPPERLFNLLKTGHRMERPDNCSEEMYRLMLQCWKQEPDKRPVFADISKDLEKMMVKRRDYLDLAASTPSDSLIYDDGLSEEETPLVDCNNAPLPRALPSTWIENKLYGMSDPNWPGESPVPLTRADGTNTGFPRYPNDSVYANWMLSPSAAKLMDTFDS
Sequence of ErbB4 (h) (Q15303 26-1308): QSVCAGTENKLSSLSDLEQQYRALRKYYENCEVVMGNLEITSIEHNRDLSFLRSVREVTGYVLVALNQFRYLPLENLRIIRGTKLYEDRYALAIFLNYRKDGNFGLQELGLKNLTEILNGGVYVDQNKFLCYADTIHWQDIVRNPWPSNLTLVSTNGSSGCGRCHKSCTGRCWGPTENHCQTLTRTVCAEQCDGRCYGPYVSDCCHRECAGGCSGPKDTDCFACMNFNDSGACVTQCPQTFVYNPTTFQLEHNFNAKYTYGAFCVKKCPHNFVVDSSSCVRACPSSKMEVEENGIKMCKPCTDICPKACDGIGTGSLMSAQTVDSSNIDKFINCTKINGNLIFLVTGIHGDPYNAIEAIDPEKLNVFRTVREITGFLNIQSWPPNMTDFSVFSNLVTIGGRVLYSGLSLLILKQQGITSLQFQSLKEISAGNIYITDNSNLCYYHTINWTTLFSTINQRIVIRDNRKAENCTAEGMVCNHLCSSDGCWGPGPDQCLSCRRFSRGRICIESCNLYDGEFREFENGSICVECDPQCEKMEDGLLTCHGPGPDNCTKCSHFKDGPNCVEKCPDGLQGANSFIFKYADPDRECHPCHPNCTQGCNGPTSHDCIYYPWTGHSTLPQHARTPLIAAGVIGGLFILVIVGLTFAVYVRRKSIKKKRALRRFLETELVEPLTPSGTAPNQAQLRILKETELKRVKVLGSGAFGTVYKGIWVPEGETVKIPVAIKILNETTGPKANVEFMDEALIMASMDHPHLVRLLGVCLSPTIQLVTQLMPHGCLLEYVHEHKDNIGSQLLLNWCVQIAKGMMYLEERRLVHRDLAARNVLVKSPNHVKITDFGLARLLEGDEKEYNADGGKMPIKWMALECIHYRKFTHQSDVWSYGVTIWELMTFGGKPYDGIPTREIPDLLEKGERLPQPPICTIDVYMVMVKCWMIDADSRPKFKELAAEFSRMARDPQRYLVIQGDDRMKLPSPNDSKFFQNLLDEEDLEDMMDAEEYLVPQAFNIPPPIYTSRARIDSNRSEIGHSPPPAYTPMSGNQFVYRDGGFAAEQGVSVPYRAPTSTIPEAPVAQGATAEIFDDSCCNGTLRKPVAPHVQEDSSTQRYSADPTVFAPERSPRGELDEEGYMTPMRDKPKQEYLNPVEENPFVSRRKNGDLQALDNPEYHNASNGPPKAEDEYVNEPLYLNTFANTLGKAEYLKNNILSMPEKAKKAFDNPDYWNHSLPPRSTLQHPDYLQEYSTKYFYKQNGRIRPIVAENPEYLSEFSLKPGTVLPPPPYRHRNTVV
Sequence of Lyn (h) (P07948 whole entry): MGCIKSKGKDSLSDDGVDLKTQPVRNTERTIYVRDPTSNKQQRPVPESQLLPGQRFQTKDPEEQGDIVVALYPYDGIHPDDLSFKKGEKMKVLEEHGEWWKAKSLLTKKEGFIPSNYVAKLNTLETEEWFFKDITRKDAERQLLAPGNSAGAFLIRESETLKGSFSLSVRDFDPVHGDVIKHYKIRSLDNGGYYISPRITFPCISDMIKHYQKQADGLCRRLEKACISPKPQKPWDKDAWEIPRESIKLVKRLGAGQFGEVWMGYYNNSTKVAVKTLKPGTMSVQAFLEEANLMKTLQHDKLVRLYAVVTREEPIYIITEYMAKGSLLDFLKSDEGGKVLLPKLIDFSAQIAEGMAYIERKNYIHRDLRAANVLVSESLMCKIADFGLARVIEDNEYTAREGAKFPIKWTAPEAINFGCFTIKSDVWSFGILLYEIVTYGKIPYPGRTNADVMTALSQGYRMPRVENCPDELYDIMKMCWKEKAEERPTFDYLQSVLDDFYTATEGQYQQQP

Structure (SMILES): CC(=O)NCCNCCCOc1cc2ncnc3c2cc1OCCCNC(=O)[C@H](C)N(C)Cc1cc(F)c(Cl)cc1N3 [Compound 4]
- inhibition at 1 µM (EGFR (h)): > 80%
- inhibition at 1 µM (Lck (h)): > 80%
- inhibition at 1 µM (Ret human): > 80%
- inhibition at 1 µM (Flt1 human): 30 to 60%
- inhibition at 1 µM (Blk (m)): > 80%
- inhibition at 1 µM (ErbB4 (h)): 30 to 60%

Structure (SMILES): CC(=O)N(CCO)CCCOc1cc2ncnc3c2cc1OCCCNC(=O)[C@H](C)N(C)Cc1cc(F)c(Cl)cc1N3 [Compound 5]
- inhibition at 1 µM (EGFR (h)): > 80%
- inhibition at 1 µM (Lck (h)): 60 to 80%
- inhibition at 1 µM (Lyn (h)): > 80%
- inhibition at 1 µM (Ret human): 60 to 80%
- inhibition at 1 µM (Flt1 human): 30 to 60%
- inhibition at 1 µM (Blk (m)): > 80%
- inhibition at 1 µM (ErbB4 (h)): 10 to 30%

Structure (SMILES): CN1CCCCCOc2cc3c(ncnc3cc2OC[C@H](O)CNCCOCCO)Nc2cc(Cl)c(F)cc2C1 [Compound 17]
- inhibition at 1 µM (EGFR (h)): > 80%
- inhibition at 1 µM (Lck (h)): > 80%
- inhibition at 1 µM (Lyn (h)): > 80%
- inhibition at 1 µM (ErbB4 (h)): > 80%

Structure (SMILES): CN1CCCCCOc2cc3c(ncnc3cc2OCCCNCCS(C)(=O)=O)Nc2cc(Cl)c(F)cc2C1 [Compound 18]
- inhibition at 1 µM (EGFR (h)): > 80%
- inhibition at 1 µM (Lck (h)): > 80%
- inhibition at 1 µM (Lyn (h)): > 80%
- inhibition at 1 µM (ErbB4 (h)): > 80%

Structure (SMILES): CN1CCCCCOc2cc3c(ncnc3cc2OCCCN2CCS(=O)(=O)CC2)Nc2cc(Cl)c(F)cc2C1 [Compound 19]
- inhibition at 1 µM (EGFR (h)): > 80%
- inhibition at 1 µM (Lck (h)): > 80%
- inhibition at 1 µM (Ret human): > 80%
- inhibition at 1 µM (Flt1 human): > 80%
- inhibition at 1 µM (Blk (m)): > 80%
- inhibition at 1 µM (ErbB4 (h)): 60 to 80%

Structure (SMILES): C#Cc1ccc2c(c1)Nc1ncnc3cc(OCCCNCCS(C)(=O)=O)c(cc13)OCCCCCN(C)C2 [Compound 20]
- inhibition at 1 µM (Lck (h)): > 80%
- inhibition at 1 µM (Lyn (h)): > 80%
- inhibition at 1 µM (Ret human): > 80%
- inhibition at 1 µM (Flt1 human): > 80%
- inhibition at 1 µM (Blk (m)): > 80%
- inhibition at 1 µM (ErbB4 (h)): > 80%

Structure (SMILES): C[C@H]1C(=O)NCCCOc2cc3c(ncnc3cc2OCCCN2CCN(C(=O)OC(C)(C)C)CC2)Nc2cc(Cl)c(F)cc2CN1C [Int. 16]
- inhibition at 1 µM (EGFR (h)): > 80%
- inhibition at 1 µM (Lck (h)): > 80%
- inhibition at 1 µM (Lyn (h)): > 80%
- inhibition at 1 µM (Ret human): > 80%
- inhibition at 1 µM (Flt1 human): 60 to 80%
- inhibition at 1 µM (Blk (m)): > 80%
- inhibition at 1 µM (ErbB4 (h)): 10 to 30%

Results, then the molecule that gave them:

- inhibition at 1 µM (EGFR (h)): > 80%
- inhibition at 1 µM (Lck (h)): > 80%
- inhibition at 1 µM (Ret human): > 80%
- inhibition at 1 µM (Flt1 human): 30 to 60%
- inhibition at 1 µM (Blk (m)): > 80%
- inhibition at 1 µM (ErbB4 (h)): 30 to 60%
Structure (SMILES): CC(=O)OCCN(C)CCCOc1cc2ncnc3c2cc1OCCCNC(=O)[C@H](C)N(C)Cc1cc(F)c(Cl)cc1N3 [Compound 2]

- inhibition at 1 µM (EGFR (h)): > 80%
- inhibition at 1 µM (Lck (h)): > 80%
- inhibition at 1 µM (Lyn (h)): > 80%
- inhibition at 1 µM (ErbB4 (h)): 60 to 80%
Structure (SMILES): CC(=O)NCCN1CCN(CCCOc2cc3ncnc4c3cc2OCCCNC(=O)[C@H](C)N(C)Cc2cc(F)c(Cl)cc2N4)CC1 [Compound 6]

- inhibition at 1 µM (EGFR (h)): > 80%
- inhibition at 1 µM (Lyn (h)): 30 to 60%
- inhibition at 1 µM (Ret human): > 80%
- inhibition at 1 µM (Flt1 human): 30 to 60%
- inhibition at 1 µM (Blk (m)): 30 to 60%
- inhibition at 1 µM (ErbB4 (h)): 10 to 30%
Structure (SMILES): CN1CCCCCOc2cc3c(ncnc3cc2OCCCNC(=O)OC(C)(C)C)Nc2cc(Br)ccc2C1 [Compound 11]

- inhibition at 1 µM (EGFR (h)): > 80%
- inhibition at 1 µM (Lck (h)): > 80%
- inhibition at 1 µM (Lyn (h)): > 80%
- inhibition at 1 µM (Ret human): > 80%
- inhibition at 1 µM (Flt1 human): 60 to 80%
- inhibition at 1 µM (Blk (m)): > 80%
- inhibition at 1 µM (ErbB4 (h)): 60 to 80%
Structure (SMILES): CN1CCCCCOc2cc3c(ncnc3cc2OC[C@@H](O)CN2CCS(=O)(=O)CC2)Nc2cc(Br)ccc2C1 [Compound 12]

- inhibition at 1 µM (EGFR (h)): > 80%
- inhibition at 1 µM (Lck (h)): > 80%
- inhibition at 1 µM (Lyn (h)): > 80%
- inhibition at 1 µM (Ret human): > 80%
- inhibition at 1 µM (Flt1 human): > 80%
- inhibition at 1 µM (Blk (m)): > 80%
- inhibition at 1 µM (ErbB4 (h)): > 80%
Structure (SMILES): CC(=O)NCCNCCCOc1cc2ncnc3c2cc1OCCCCCN(C)Cc1ccc(Br)cc1N3 [Compound 13]

- inhibition at 1 µM (EGFR (h)): > 80%
- inhibition at 1 µM (Lck (h)): > 80%
- inhibition at 1 µM (Lyn (h)): > 80%
- inhibition at 1 µM (Ret human): > 80%
- inhibition at 1 µM (Flt1 human): > 80%
- inhibition at 1 µM (Blk (m)): > 80%
- inhibition at 1 µM (ErbB4 (h)): > 80%
Structure (SMILES): CN1CCCCCOc2cc3c(ncnc3cc2OCCCNCCS(C)(=O)=O)Nc2cc(Br)ccc2C1 [Compound 14]

- inhibition at 1 µM (EGFR (h)): > 80%
- inhibition at 1 µM (Lck (h)): 30 to 60%
- inhibition at 1 µM (Lyn (h)): 60 to 80%
- inhibition at 1 µM (Ret human): 10 to 30%
- inhibition at 1 µM (Flt1 human): 10 to 30%
- inhibition at 1 µM (Blk (m)): 30 to 60%
- inhibition at 1 µM (ErbB4 (h)): 10 to 30%
Structure (SMILES): COc1cc2ncnc3c2cc1OCCCN(CCN1CCOCC1)C(=O)CNC(=O)Cc1ccc(Cl)cc1N3 [Compound 15]

- inhibition at 1 µM (EGFR (h)): > 80%
- inhibition at 1 µM (Lck (h)): 60 to 80%
- inhibition at 1 µM (Lyn (h)): 60 to 80%
- inhibition at 1 µM (Ret human): 30 to 60%
- inhibition at 1 µM (Flt1 human): 10 to 30%
- inhibition at 1 µM (Blk (m)): 30 to 60%
- inhibition at 1 µM (ErbB4 (h)): 30 to 60%
Structure (SMILES): COc1cc2ncnc3c2cc1OCCCN(CCCN1CCOCC1)C(=O)[C@H](CC(C)C)NC(=O)Cc1ccc(Br)cc1N3 [Int. 25]

- inhibition at 1 µM (EGFR (h)): > 80%
- inhibition at 1 µM (Lck (h)): > 80%
- inhibition at 1 µM (Lyn (h)): > 80%
- inhibition at 1 µM (Ret human): > 80%
- inhibition at 1 µM (Flt1 human): 60 to 80%
- inhibition at 1 µM (Blk (m)): 60 to 80%
- inhibition at 1 µM (ErbB4 (h)): 10 to 30%
Structure (SMILES): COCCOCCOc1cc2ncnc3c2cc1OCCCCCN(C)Cc1ccc(Br)cc1N3 [Int. 43]

From patent publication US9688691B2, “Macrocyclic quinazole derivatives and their use as MTKI” (Janssen Pharmaceutica NV, priority 2004, dated 2017)
